Counter-ions that a name gives are not always drawn.
target: T1, human A2a receptor (Homo sapiens, UniProt P29274); assay: A2a receptor competition binding assay (Scintillation Proximity); conditions: A2a Ki, membranes from HEK293 cells expressing human A2a receptor; 0.5 nM tritiated ligand; Cheng-Prusoff
T1 construct: purchased Perkin-Elmer RBHA2AM400UA; host or cells: HEK293 cells, used as a membrane preparation
Description: Binding affinities of compounds of the invention for the human A2a receptor were determined in a competition binding assay using Scintillation Proximity technology. Thus, 0.3 μg of membranes from HEK293 cells expressing the human A2a receptor were incubated with a compound of the invention at concentrations ranging from 3000 nM to 0.15 nM in a reaction mixture containing also 0.5 nM of a tritiated form of 5-amino-7-[2-phenethyl]-2-(furan-2-yl)-7H-pyrazolo[4,3-e][1,2,4]triazolo[1,5-c]pyrimidine (the tritiated compound) and 100 μg of wheat germ agglutin-coated yttrium silicate SPA beads for one hour at room temperature with agitation. The beads were then allowed to settle to the bottom of the wells for 1 hr, after which the membrane-associated radioactivity was determined by scintillation counting in a TopCount microplate reader. Ki values were determined using the Cheng-Prusoff equation.
Summary of Materials and Methods Used in A2a Activity Determination:
HEK293 cells expressing the human, rat, dog or monkey adenosine 2a receptor (Purchased from Perkin-Elmer #RBHA2AM400UA).
The Tritiated compound was prepared according to published methods.
Wheat germ agglutinin-coated yttrium silicate SPA beads (GE Healthcare #RPNQ0023). Dilute to 25 mg/ml in assay buffer.
Assay Buffer was prepared using Dulbecco's calcium and magnesium free phosphate buffered saline+10 mMMgCl2
Adenosine deaminase from calf intestine, 10 mg/2 ml (Roche #10 102 105 001).
A2a antagonist standard (9-chloro-1-(2-furanyl)-[1,2,4]triazolo1,5-c]quinazolin-5-amine from Tocris Bioscience)
Make eight 1:3 serial dilutions in 100% DMSO from a 3 mM compound stock
Transfer 50 nl of compound into a 384-well OptiPlate (Perkin Elmer).
Typically, final concentrations of compound used in the assay ranged from 3000 nM to 0.152 nM.
Dilute a solution of the Tritiated compound to 1.25 nM in assay buffer. This is a 2.5× solution. The final concentration in the assay is 0.5 nM. Calculate the concentration by counting two 5 μl aliquots.
Use 0.25 ug of membrane/well. Dilute membranes to 9.7 μg/ml in assay buffer. Treat with 20 ug/ml adenosine deaminase (ADA) for 15 minutes at room temperature to degrade endogenous adenosine.
Use 100 μg/well wheat germ agglutinin-coated yttrium silicate SPA beads.
Mix ADA-treated membranes and SPA beads together for 30 min prior to assay.
To the Perkin-Elmer Optiplate-384 containing the compound titration add 20 μl of 2.5× solution of the Tritiated compound and 30 μl of the membrane-bead mixture. Incubate for one hour at room temperature with agitation.
Include total binding (assay buffer+1% DMSO) and non-specific binding (CGS15943, 1 μM) wells.
Allow the beads to settle for one hour.
A curve fitting program (i.e., Prism, Activity Base, Chemcart) is used to determine the EC50. The Ki value is calculated using the Cheng-Prusoff equation. Ki=EC50/(1+(radioligand concentration/Kd))

T1 sequence (P29274 whole entry): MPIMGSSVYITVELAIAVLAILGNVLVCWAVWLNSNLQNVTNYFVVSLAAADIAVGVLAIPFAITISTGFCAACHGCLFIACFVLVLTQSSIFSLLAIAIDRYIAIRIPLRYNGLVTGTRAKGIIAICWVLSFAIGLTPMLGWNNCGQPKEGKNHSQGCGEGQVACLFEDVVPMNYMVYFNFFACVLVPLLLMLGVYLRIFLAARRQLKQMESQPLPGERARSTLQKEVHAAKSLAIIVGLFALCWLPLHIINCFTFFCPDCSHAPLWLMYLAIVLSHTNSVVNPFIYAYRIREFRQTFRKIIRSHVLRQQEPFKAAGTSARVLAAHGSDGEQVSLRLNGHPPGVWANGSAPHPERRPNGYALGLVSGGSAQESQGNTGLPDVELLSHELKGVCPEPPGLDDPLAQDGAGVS

SMILES | Ki [nM]
COc1cccc2c1nc(N)n1cc(C(=O)N3C4CCC3COC4)nc21 [Ex-224, (5-amino-7-methoxyimidazo[1,2-c]quinazolin-2-yl)(3-oxa-8-azabicyclo[3.2.1]octan-8-yl)methanone] | 8.2

same assay, conditions: membranes from HEK293 cells expressing human A2a receptor; 0.5 nM tritiated ligand; Cheng-Prusoff; read-out: A2a Ki

SMILES | Ki [nM]
Cc1cccc(C(=O)N2CCC(Cc3cn4c(N)nc5c(F)cccc5c4n3)CC2)n1 [Ex-324, (4-((5-amino-7-fluoroimidazo[1,2-c]quinazolin-2-yl)-methyl)piperidin-1-yl)(6-methylpyridin-2-yl)methanone] | 44
Cn1c(NC(=O)c2ccc(Cc3cn4c(N)nc5c(F)cccc5c4n3)cc2)nc2ccccc21 [Ex-86, 5-amino-7-fluoro-2-(4-((1-methyl-1H-benzo[d]imidazol-2-yl)carbamoyl)benzyl)imidazo[1,2-c]quinazolin-6-ium formate] | 44
Nc1nc2c(F)cccc2c2nc(Cc3ccc(C(=O)NCCN4CCOCC4)cc3)cn12 [Ex-90, 4-((5-amino-7-fluoroimidazo[1,2-c]quinazolin-2-yl)methyl)-N-(2-morpholinoethyl)benzamide] | 66
Nc1nc2ccccc2c2nc(-c3ccc(Br)cc3)cn12 [Ex-104, 2-(4-bromophenyl)imidazo[1,2-c]quinazolin-5-amine] | 407
COc1cccc2c1nc(N)n1cc(C(=O)N3C[C@@H]4C[C@H]3CO4)nc21 [Ex-225, (5-amino-7-methoxyimidazo[1,2-c]quinazolin-2-yl)((1S,4S)-2-oxa-5-azabicyclo[2.2.1]heptan-5-yl)methanone] | 35
Nc1nc2c(F)cccc2c2nc(C(=O)N3CCC4(CCNC4)C3)cn12 (centres unmarked) [Ex-272, (5-amino-7-fluoroimidazo[1,2-c]quinazolin-2-yl)(2,7-diazaspiro[4.4]nonan-2-yl)methanone] | 380
Cc1noc(C)c1-c1cccc2c1nc(N)n1cc(Cc3ccccc3)nc21 [Ex-152] | 35
CS(=O)(=O)Nc1nc2c(F)cccc2c2nc(-c3ccccc3CN3CCN(c4ccccn4)CC3)cn12 [Ex-108, N-(7-fluoro-2-(2-((4-(pyridin-2-yl)piperazin-1-yl)methyl)-phenyl)-imidazo[1,2-c]-quinazolin-5-yl)-methanesulfonamide] | 130
CC1(O)CCN(Cc2cn3c(N)nc4ccccc4c3n2)CC1 [Ex-109, 1-((5-aminoimidazo[1,2-c]quinazolin-2-yl)methyl)-4-methylpiperidin-4-ol] | 2460
COc1cccc2c1nc(N)n1cc(C(=O)N3CCOC[C@H]3C)nc21 [Ex-183, (R)-(5-amino-7-methoxyimidazo[1,2-c]quinazolin-2-yl)(3-methylmorpholino) methanone] | 126
COc1ccc(CN2CCC(Cc3cn4c(N)nc5c(F)cccc5c4n3)CC2)cc1 [Ex-309, 7-fluoro-2-((1-(4-methoxybenzyl)-piperidin-4-yl)-methyl)imidazo-[1,2-c]quinazolin-5-amine] | 150
CCCN1CCCC2(CCN(C(=O)c3cn4c(N)nc5c(F)cccc5c4n3)CC2)C1 [Ex-279, (5-amino-7-fluoroimidazo[1,2-c]quinazolin-2-yl)(2-propyl-2,9-diazaspiro[5.5]undecan-9-yl)methanone] | 34
Nc1nc2c(F)cccc2c2nc(CNCc3ccc(F)cc3)cn12 [Ex-142] | 130

Second part, the molecule after the results:

Ki [nM] | SMILES
6.3 | Nc1nc2cccc(F)c2c2nc(Cc3ccccc3)cn12 [Ex-09, 2-benzyl-10-fluoroimidazo[1,2-c]quinazolin-5-amine]
11 | COc1cccc2c1nc(N)n1cc(C(=O)N3CCC4CCCCC4C3)nc21 (centres unmarked) [Ex-192, (5-amino-7-methoxyimidazo[1,2-c]quinazolin-2-yl)(octahydroisoquinolin-2(1H)-yl)methanone]
31 | COc1cccc2c1nc(N)n1cc(C(=O)N3CCCC(=O)CC3)nc21 [Ex-179, 1-(5-amino-7-methoxyimidazo[1,2-c]quinazoline-2-carbonyl)azepan-4-one]
18 | Nc1nc2c(F)cccc2c2nc(Cc3cccc4c3CCN(CCc3ccccn3)C4)cn12 [Ex-57, 7-fluoro-2-((2-(2-(pyridin-2-yl)ethyl)-1,2,3,4-tetrahydroisoquinolin-5-yl)methyl)imidazo[1,2-c]quinazolin-5-amine]
11 | COc1cccc2c1nc(N)n1cc(C(=O)N3CCCC4(COC4)C3)nc21 [Ex-203, (5-amino-7-methoxyimidazo[1,2-c]quinazolin-2-yl)(2-oxa-6-azaspiro[3.5]nonan-6-yl)methanone]
5.2 | COc1cccc2c1nc(N)n1cc(C(=O)N3CCC4(CCCC4)CC3)nc21 [Ex-202, (5-amino-7-methoxyimidazo[1,2-c]quinazolin-2-yl)(8-azaspiro[4.5]decan-8-yl)methanone]
13 | Nc1nc2c(F)cccc2c2nc(Cc3cccc4c3OCCN4C(=O)Cc3ccccn3)cn12 [Ex-92, 1-(8-((5-amino-7-fluoroimidazo[1,2-c]quinazolin-2-yl)methyl)-2,3-dihydro-4H-benzo[b][1,4]oxazin-4-yl)-2-(pyridin-2-yl)ethan-1-one]
14 | COc1cccc2c1nc(N)n1cc(C(=O)N3CCC4(CC3)CC4)nc21 [Ex-201, (5-amino-7-methoxyimidazo[1,2-c]quinazolin-2-yl)(6-azaspiro[2.5]octan-6-yl)methanone]
2.1 | COc1cccc2c1nc(N)n1cc(Cc3c(O)cccc3F)nc21 [Ex-31, 2-((5-amino-7-methoxyimidazo[1,2-c]quinazolin-2-yl)methyl)-3-fluorophenol]
2 | Nc1nc2ccccc2c2nc(Cc3cccc4cccnc34)cn12 [Ex-15, 2-(quinolin-8-ylmethyl)imidazo[1,2-c]quinazolin-5-amine]
6.2 | Cc1cccc(CNC(=O)c2cn3c(N)nc4c(F)cccc4c3n2)n1 [Ex-295, 5-amino-7-fluoro-N-((6-methylpyridin-2-yl)methyl)imidazo[1,2-c]quinazoline-2-carboxamide]
2 | Nc1nc2c(F)cccc2c2nc(C(=O)NCc3ccccc3N3CCOCC3)cn12 [Ex-250, 5-amino-7-fluoro-N-(2-morpholinobenzyl)imidazo [1,2-c]quinazoline-2-carboxamide]
2.3 | C[C@@H](NC(=O)c1cn2c(N)nc3c(F)cccc3c2n1)c1ccccc1 [Ex-297, (R)-5-amino-7-fluoro-N-(1-phenylethyl)imidazo[1,2-c]quinazoline-2-carboxamide]
3.6 | Nc1nc2ccc(F)cc2c2nc(Cc3ccccc3)cn12 [Ex-08, 2-benzyl-9-fluoroimidazo[1,2-c]quinazolin-5-amine]
11 | COc1cccc2c1nc(N)n1cc(Cc3cccnc3-c3cncnc3)nc21 [Ex-80, 7-methoxy-2-((2-(pyrimidin-5-yl)pyridin-3-yl)methyl)imidazo[1,2-c]quinazolin-5-amine]
2.4 | COc1cccc2c1nc(N)n1cc(Cc3c(F)cccc3-c3ccc(C(F)(F)F)nc3)nc21 [Ex-79, 2-(2-fluoro-6-(6-(trifluoromethyl)pyridin-3-yl)benzyl)-7-methoxyimidazo[1,2-c]quinazolin-5-amine]
14 | Nc1nc2c(F)cccc2c2nc(Cc3cc(F)ccc3-c3cncnc3)cn12 [Ex-81, 7-fluoro-2-(5-fluoro-2-(pyrimidin-5-yl)benzyl)imidazo[1,2-c]quinazolin-5-amine]
2.3 | Nc1nc2ccccc2c2nc(Cc3ccccc3C(F)(F)F)cn12 [Ex-14, 2-(2-(trifluoromethyl)benzyl)imidazo[1,2-c]quinazolin-5-amine]
